Earlier results in article PMC3066409 (Diabetic Medicine, 2010).
Structures can show the parent of a compound that is named as a salt.

Conditions: prescribing information

Row | Compound | Drowsiness
1 | CCN(CC)CCNC(=O)c1cc(Cl)c(N)cc1OC [metoclopramide] | reported adverse effect
2 | Cc1nccn1CC1CCc2c(c3ccccc3n2C)C1=O (centres unmarked) [ondansetron, ondansetron hydrochloride] | reported adverse effect
